The structures appear in SMILES notation.

The target in one experiment is T1, HUWE1^HECT (Homo sapiens, UniProt Q7Z6Z7).
T1 construct: the isolated HECT domain of HUWE1 (HUWE1^HECT); made in house
T1 sequence (Q7Z6Z7 4038-4374 limits assumed): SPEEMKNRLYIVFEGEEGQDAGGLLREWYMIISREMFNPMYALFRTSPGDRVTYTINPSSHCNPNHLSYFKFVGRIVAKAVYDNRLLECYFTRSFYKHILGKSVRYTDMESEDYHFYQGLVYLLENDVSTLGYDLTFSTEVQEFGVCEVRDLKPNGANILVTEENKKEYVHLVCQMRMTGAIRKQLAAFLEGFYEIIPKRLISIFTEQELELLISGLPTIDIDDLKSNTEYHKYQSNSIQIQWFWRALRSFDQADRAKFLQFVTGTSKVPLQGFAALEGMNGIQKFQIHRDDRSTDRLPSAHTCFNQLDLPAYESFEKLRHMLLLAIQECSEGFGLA
Briefly: HUWE1^HECT multi-turnover ubiquitination reactions (fluorescent Ub tracer, SDS-PAGE). Particulars: E2 UBE2L3, varying concentrations. Format: biochemical. Here is the method:
HUWE1^HECT multi-turnover ubiquitination reactions were performed for 30 minutes (unless stated otherwise) with 200 nM UBA1, 5 μM UBE2L3 or UBE2D3 (as specified), 1 μM HUWE1^HECT and 30 μM Ub in 25 mM HEPES (pH 7.5), 100 mM NaCl, 3 mM MgCl2, and 0.5 mM TCEP. HUWE1^FL multi-turnover ubiquitination reactions included 50 nM UBA1, 2.5 μM UBE2L3, 0.05 μM HUWE1^FL, 0.5 μM MCL1 (or 0.5 μM H2B or 1 μM FOXP3) and 20 μM Ub in 20 mM HEPES (pH 7.5), 100 mM NaCl, 3 mM MgCl2, and 0.5 mM TCEP. All multi-turnover reactions were started by the addition of 1 mM ATP, incubated at 30 °C, quenched with SDS-loading dye. If not stated otherwise, HUWE1^FLautoubiquitination reactions were incubated for 20 minutes. Substrate ubiquitination reactions with MCL1 or H2B were incubated for 10 and 20 min, respectively; those with FOXP3 for 30 min. Those reactions that were monitored by fluorescence contained a fluorescent Ub tracer (IRDye 800CW maleimide; LI-COR)[55] and were monitored using an Odyssey CLx scanner (LI-COR), followed by Coomassie staining. In the fluorescence images, only those marker bands are labeled (in kDa) that are visible by fluorescence; all marker bands are labeled in the Coomassie-stained images. Statistical analyses were performed with Prism 9 v.9.3.1 (GraphPad).

Experiment [1] has as its system HECT domains of E6AP (UBE3A), HACE1, NEDD4, and UBE3C. Briefly: Analytical SEC of compound ubiquitination by other HECT domains. Format: biochemical, human.
Experiment [2] has as its target T2, HUWE1-HECT-Ub vinylthioether-linked conjugate (Homo sapiens, UniProt Q7Z6Z7).
T2 construct: The preparation of the vinylthioether-linked HUWE1^HECT-Ub complex was also previously described; made in house; host or cells: bacteria (components)
Briefly: HDX-MS of HUWE1^HECT~Ub proxy with inhibitors. Format: binding. Particulars: 10-fold molar excess of inhibitor. Here is the method:
Two experiments were performed: 50 μM HUWE1^HECT (1) or HUWE1^HECT-Ub conjugate (2) were incubated with 500 μM of BI8626 or BI8622 for 1 h on ice prior HDX-MS. Individual HDX reactions were generated with a 2-arm autosampler (LEAP Technologies) by mixing 6.5 μL sample with 58.5 μL of HDX buffer (20 mM HEPES pH 8.0, 150 mM NaCl, 5 mM DTT) prepared with 99.9% D2O, incubation at 25 °C for various times, before quenching by mixing 55 μL with an equal volume of 400 mM KH2PO4/H3PO4 (pH 2.2) and 2 M guanidine-HCl (precooled at 1 °C). Non-deuterated samples were generated analogously by 10-fold dilution with H2O-based buffer. […] For each protein state and time-point, three individual HDX reactions were measured.
Peptide identification and HDX analysis was performed with ProteinLynx Global SERVER v.3.0.1 (PLGS; Waters) and DynamX v.3.0 (Waters), as described previously. […] Only peptides with an intensity >10,000 counts, ≤ 30 residues, ≥ 2 products with ≥ 0.05 products/residue, ≤ 25 ppm mass error and retention time tolerance of 0.5 min were analysed. […] The maximal deuterium uptake of a given peptide was calculated by the number of residues minus one for the N-terminal residue and minus the number of prolines. […]

On to `Cc1c(C(=O)Nc2ccc(CN)cc2)ncnc1N1CCC(C#N)(c2ccccc2)CC1` [BI8622], for which, at HUWE1^HECT, the “Inhibition of HUWE1^HECT-driven ubiquitination” value is “inhibit ubiquitination dose-dependently in the low-micromolar concentration range”. Further, the “Compound ubiquitination by other HECT domains” value in experiment [1] is reported as “certain compound-directed activities were detected for all tested HECT domains”. For the same compound, the “Binding to HUWE1^HECT~Ub proxy by HDX-MS” value in experiment [2] is “did not provide evidence of binding”.
For `NCc1cccc(CNc2ncnc3c(N4CCN(Cc5ccccc5)CC4)ncnc23)c1` [BI8626], in that order: “inhibit ubiquitination dose-dependently in the low-micromolar concentration range”, “certain compound-directed activities were detected for all tested HECT domains” and “did not provide evidence of binding”.

Source of the values: paper PMC12405493, “Selective ubiquitination of drug-like small molecules by the ubiquitin ligase HUWE1” (Nature Communications, 2025).
